The values below come from patent US12655169B2, “Arabinose and preparation and use thereof” (THOMSON BIOTECH (XIAMEN) PTE. LTD., priority 2022, dated 2026).

Common to all, as to format: physicochemical
The nature of data set [1]: Flowability test (particle and powder characteristic analyzer, FT-102D). An excerpt:
(§1) Example 4. Particle Size Parameters and Powder Characteristics (Quantity Distribution) of L-Arabinose
Example 13. Performance Test Results for the Granules of the Present Disclosure

Data set [2] can be described thus: Particle size parameter test (BT-2900 image particle size analysis system). The conditions noted are these: quantity distribution, image particle size analysis.
Excerpt: as §1

Data set [3] can be described thus: Granularity distribution of sample (standard sieve). The conditions noted are these: for Granularity distribution of sample (standard sieve) 20-80 mesh / Granularity distribution of sample (standard sieve) <80 mesh / Granularity distribution of sample (standard sieve) >20 mesh: Example 8 samples, seed crystal specification and fed-batch time varied. As to the method:
1 kg of L-arabinose starting material was dissolved in 1.2 kg of purified water at 60° C. After the solution was completely clear, 1 g of activated carbon ([…] of the L-arabinose) was added. The mixture was incubated at 60° C. for 30 min and then subjected to suction filtration under vacuum successively through 25 μm and 0.45 μm filter membranes to remove the activated carbon, and a clear filtered sugar liquid (about 1800 mL in volume) was obtained. About 800 mL of the clear filtered sugar liquid was added to a three-necked flask, and stirred and evaporated under reduced pressure in a water bath set at a temperature of 62° C. until the sugar degree reached 58-60% Brix. A proper amount of L-arabinose was added as seed crystals (as shown in Table 8-1 below, seed crystal with different specifications was selected: 40-60 mesh, 16.5 g; 60-80 mesh, 6 g; 80-100 mesh, 1.5 g). The mixture was stirred (double-layered type of stirring, with two-half-crescent type for the lower layer and three-bladed propeller type for the upper layer) at a rate of 90-110 rpm until the seed crystal was completely dispersed. Then the sugar liquid was added at a rate of 50-100 mL/h in a fed-batch manner for a time period of 12/18 h. After the fed-batch addition was completed, the concentrating was continued for 1-2 h. It was about 14 h from the time the seed crystal was added to the time of discharging.
According to the results shown in Table 8-1, the specific surface area of the seed crystal of 80-100 mesh is relatively […] compared with that of the seed crystal of other specifications (as shown in Table 8-2), but the particle size distribution of the sample obtained by experiment is relatively uniform: the proportion of 20-80 mesh is more than 89.7%, and the maximum proportion is more than 90%, which fully complies with the requirements of the existing pharmacopoeia (Chinese pharmacopoeia (2020)) for granules: granules cannot pass through a No. 1 sieve (10 mesh, 2000 μm) and the total quantity of granules which can pass through a No. 5 sieve (80 mesh, pore size of […]) should not exceed 15%.

Where [4] appears, read: post-centrifugation sampling-manual material spreading and drying oven drying.
Where [5] appears, read: screw feeding-back-mixing bed drying.
[6] abbreviates: listed as Example 10 sample of batch 1ª.
Where [7] appears, read: listed as Example 10 sample of batch 2ª.

Where two headings read alike, the source gives them in different places.

Consider `O[C@@H]1[C@@H](O)[C@@H](O)CO[C@H]1O` [Commercial product (T1)], for which, in data set [1], the Bulk density is 0.55 g/mL, the Carr flowability index is 79, the Compressibility was determined as 40.2% and the Floodability index stood at 75. In data set [1], the “Flowability (Hausner ratio)” value is listed as “Very poor”, the Hausner ratio was 1.7 and the Tap density stood at 0.93 g/mL. Also, the Angle of repose in data set [1] (in ° (unit assumed)) was found to be 51.05. Also, in data set [2], the Average particle size was found to be 75 μm, the D10 came to 27 μm, the D50 is given as 63 μm and the D90 is listed as 137 μm.

Consider `O[C@@H]1[C@@H](O)[C@@H](O)CO[C@H]1O` [Commercial product (Y1)], for which, in data set [1], the Bulk density came to 0.5 g/mL, the Carr flowability index amounted to 79, the Compressibility worked out at 41.4% and the Floodability index amounted to 75. In addition, in data set [1], the “Flowability (Hausner ratio)” value is reported as “Very poor”, the Hausner ratio is given as 1.7 and the Tap density worked out at 0.85 g/mL. In data set [1] (in ° (unit assumed)), this compound displayed an Angle of repose of 51.73. Further, in data set [2], the Average particle size amounted to 33 μm, the D10 came to 11 μm, the D50 is on record as 30 μm and the D90 amounted to 63 μm.

Turning to `O=C[C@H](O)[C@@H](O)[C@@H](O)CO` [Example 2, L-arabinose], in data set [3], the “Granularity distribution of sample (standard sieve) 20-80 mesh” value is 61, the “Granularity distribution of sample (standard sieve) <80 mesh” value amounted to 1 and the “Granularity distribution of sample (standard sieve) >20 mesh” value amounted to 38. In data set [1], this compound returned an Angle of repose of 38.95, a Bulk density of 0.6, a Carr flowability index of 102.5 and a Compressibility of 20.6. In addition, in data set [1], the Floodability index is given as 75.0, the “Flowability (Hausner ratio)” value is recorded as “Good”, the Hausner ratio is 1.3 and the Tap density is reported as 0.76. In data set [2], this compound gave an Average particle size of 189 μm, a D10 of 82 μm, a D50 of 182 μm and a D90 of 299 μm.

With `O=C[C@H](O)[C@@H](O)[C@@H](O)CO` [Example 3, L-arabinose], in data set [3], the “Granularity distribution of sample (standard sieve) 20-80 mesh” value turned out to be 81.6, the “Granularity distribution of sample (standard sieve) <80 mesh” value was 1.5 and the “Granularity distribution of sample (standard sieve) >20 mesh” value is given as 16.9. In data set [1], this compound gave an Angle of repose of 38.76, a Bulk density of 0.56, a Carr flowability index of 99 and a Compressibility of 24.3. In data set [1], the Floodability index amounted to 75.0, the “Flowability (Hausner ratio)” value was “Good”, the Hausner ratio is 1.2 and the Tap density came to 0.74. In data set [2], this compound gave an Average particle size of 125 μm, a D10 of 43 μm, a D50 of 109 μm and a D90 of 232 μm.

Regarding `O=C[C@H](O)[C@@H](O)[C@@H](O)CO` [Example 10 Sample of batch 1^b, L-arabinose], in data set [2], the Average particle size is recorded as 182 μm, the D10 is 78 μm, the D50 is given as 174 μm and the D90 is 296 μm.

In data set [2], `O=C[C@H](O)[C@@H](O)[C@@H](O)CO` [Example 10 Sample of batch 2^b, L-arabinose] returned an Average particle size of 189 μm, a D10 of 79 μm, a D50 of 168 μm and a D90 of 331 μm.

For the compound `O=C[C@H](O)[C@@H](O)[C@@H](O)CO` [Example 10 batch 1, L-arabinose], the “20-80 mesh proportion of sample” value in data set [3] (setting [4]) is 93.0%. For the same compound, the “20-80 mesh proportion of sample” value in data set [3] (setting [5]) amounted to 66.4%. In data set [1], this compound showed an Angle of repose of 40.01, a Bulk density of 0.7, a Compressibility of 17.1 and a Floodability index of 75.0. In data set [1], the “Flowability (Hausner ratio)” value was “Good”, the Hausner ratio amounted to 1.2 and the Tap density is on record as 0.85. In data set [2] (setting [6]), the Average particle size worked out at 134.5 μm, the D10 is on record as 48.4 μm, the D50 was found to be 125.1 μm and the D90 is recorded as 230.6 μm.

For `O=C[C@H](O)[C@@H](O)[C@@H](O)CO` [Example 10 batch 2, L-arabinose], the “20-80 mesh proportion of sample” value in data set [3] (setting [4]) is 96.4%. Also, the “20-80 mesh proportion of sample” value in data set [3] (setting [5]) is listed as 79.8%. In data set [1], the Angle of repose is 30.95, the Bulk density was determined as 0.68, the Carr flowability index is 102.5 and the Compressibility is 15.9. In data set [1], the Floodability index is recorded as 75.0, the “Flowability (Hausner ratio)” value was “Good”, the Hausner ratio is reported as 1.2 and the Tap density stood at 0.81. In data set [2] (setting [7]), the Average particle size stood at 129.2 μm, the D10 is reported as 41.88 μm, the D50 turned out to be 116.4 μm and the D90 was found to be 237.9 μm.

With `O=C[C@H](O)[C@@H](O)[C@@H](O)CO` [Example 11, L-arabinose], in data set [3] (setting [4]), the “20-80 mesh proportion of sample” value is reported as 90.6%. Moreover, in data set [1], the Angle of repose was determined as 34.29, the Bulk density stood at 0.5, the Carr flowability index came to 102.0 and the Compressibility is 23.1. For the same compound, in data set [1], the Floodability index is on record as 75.0, the “Flowability (Hausner ratio)” value is reported as “Acceptable”, the Hausner ratio was found to be 1.3 and the Tap density was found to be 0.65. Further, in data set [2], the Average particle size was 148.8 μm, the D10 is on record as 164.8 μm, the D50 is reported as 288.1 μm and the D90 came to 448.8 μm.

On to `O=C[C@H](O)[C@@H](O)[C@@H](O)CO` [Example 12, L-arabinose], for which the “20-80 mesh proportion of sample” value in data set [3] (setting [4]) turned out to be 93.57%. In data set [1], the Angle of repose stood at 39.74, the Bulk density is 0.48, the Carr flowability index amounted to 99 and the Compressibility is recorded as 24.4. In data set [1], the Floodability index came out at 75.0, the “Flowability (Hausner ratio)” value is on record as “Good”, the Hausner ratio worked out at 1.3 and the Tap density is reported as 0.64. In data set [2], this compound showed an Average particle size of 185.5 μm, a D10 of 175.1 μm, a D50 of 305.2 μm and a D90 of 481.8 μm.

Turning to `O=C[C@H](O)[C@@H](O)[C@@H](O)CO` [Example 14, L-arabinose], the “20-80 mesh proportion of sample” value in data set [3] (setting [4]) came out at 94.3%; in data set [3] (star valve unloading-back-mixing bed drying), 89%.

In data set [3], `O[C@@H]1[C@@H](O)[C@@H](O)CO[C@H]1O` [No. 5] gave a Granularity distribution of sample (standard sieve) 20-80 mesh of 89.7%, a Granularity distribution of sample (standard sieve) <80 mesh of 3% and a Granularity distribution of sample (standard sieve) >20 mesh of 7.3%.
